Results from patent publication WO2016116777A1, “Compositions and methods for treatment of chronic lymphocytic leukemia and small lymphocytic leukemia using a btk inhibitor” (dated 2016).
Entries after “also recorded” stand apart in the source; their conditions may differ.

What was measured:
[1] = test system: human platelet-mediated thrombosis; experiment: In vivo human platelet thrombus formation in VWF HA1 mutant mice (laser injury)
CLL = conditions: cited from earlier work
[2] = test system: NK cells (CD56+/CD107a+) with MEC-1 cells; experiment: NK cell degranulation/ADCC whole blood assay with obinutuzumab-opsonised MEC-1 cells; assay type: cell-based, human; conditions: 0.1, 1 and 10 μM, MEC-1 opsonised with obinutuzumab 1 μg/mL, 4 hours
B cell receptor = experiment: In vitro potency in whole blood, inhibition of signals through the B cell receptor (CD69); assay type: cell-based; conditions: whole blood from four healthy donors, 2 hours incubation, anti-human IgD 18 hours, read-out: EC50, CD69 on gated CD19+ B cells
[3] = test system: platelet collagen receptor glycoprotein VI (GPVI); experiment: GPVI platelet aggregation; assay type: cell-based, human
Th17 cells = experiment: Effect on Th17 cells
[4] = biological target: T1, interleukin-2 inducible tyrosine kinase (ITK) (Homo sapiens, UniProt Q08881); conditions: cited from earlier work
T1 sequence (Q08881 1-620): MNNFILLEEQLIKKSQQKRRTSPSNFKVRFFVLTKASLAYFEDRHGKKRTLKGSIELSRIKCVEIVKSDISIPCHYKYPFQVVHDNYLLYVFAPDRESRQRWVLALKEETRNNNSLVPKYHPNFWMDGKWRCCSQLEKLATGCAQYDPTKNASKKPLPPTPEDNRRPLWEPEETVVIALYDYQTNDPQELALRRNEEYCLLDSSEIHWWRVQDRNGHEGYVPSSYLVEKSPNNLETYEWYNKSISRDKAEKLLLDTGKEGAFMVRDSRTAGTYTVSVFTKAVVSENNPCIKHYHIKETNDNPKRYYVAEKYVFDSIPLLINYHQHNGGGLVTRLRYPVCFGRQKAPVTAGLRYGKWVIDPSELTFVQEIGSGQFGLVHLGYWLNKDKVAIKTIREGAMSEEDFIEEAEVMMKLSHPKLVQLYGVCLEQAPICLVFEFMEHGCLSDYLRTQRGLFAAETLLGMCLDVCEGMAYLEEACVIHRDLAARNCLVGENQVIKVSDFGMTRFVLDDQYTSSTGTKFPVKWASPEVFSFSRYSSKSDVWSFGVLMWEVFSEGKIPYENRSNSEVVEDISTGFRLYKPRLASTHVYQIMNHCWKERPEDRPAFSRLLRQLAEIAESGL

CD8+ T cell = experiment: Effect on CD8+ T cell viability
regulatory T cell (Treg) = experiment: Effect on Treg development
[5] = biological target: epidermal growth factor receptor (EGFR) (Homo sapiens, UniProt P00533); conditions: in vitro; cited from earlier work
[6] = test system: cytochrome P450 (CYP) enzymes 3A4/5 and 2D6; conditions: cited from earlier work
NK cells = conditions: cited from earlier work
[7] = Phase 1, previously treated CLL, monotherapy
[8] = Phase 1 portion, relapsed/refractory CLL, n=13

epidermal growth factor receptor (EGFR), sequence (P00533 25-1210): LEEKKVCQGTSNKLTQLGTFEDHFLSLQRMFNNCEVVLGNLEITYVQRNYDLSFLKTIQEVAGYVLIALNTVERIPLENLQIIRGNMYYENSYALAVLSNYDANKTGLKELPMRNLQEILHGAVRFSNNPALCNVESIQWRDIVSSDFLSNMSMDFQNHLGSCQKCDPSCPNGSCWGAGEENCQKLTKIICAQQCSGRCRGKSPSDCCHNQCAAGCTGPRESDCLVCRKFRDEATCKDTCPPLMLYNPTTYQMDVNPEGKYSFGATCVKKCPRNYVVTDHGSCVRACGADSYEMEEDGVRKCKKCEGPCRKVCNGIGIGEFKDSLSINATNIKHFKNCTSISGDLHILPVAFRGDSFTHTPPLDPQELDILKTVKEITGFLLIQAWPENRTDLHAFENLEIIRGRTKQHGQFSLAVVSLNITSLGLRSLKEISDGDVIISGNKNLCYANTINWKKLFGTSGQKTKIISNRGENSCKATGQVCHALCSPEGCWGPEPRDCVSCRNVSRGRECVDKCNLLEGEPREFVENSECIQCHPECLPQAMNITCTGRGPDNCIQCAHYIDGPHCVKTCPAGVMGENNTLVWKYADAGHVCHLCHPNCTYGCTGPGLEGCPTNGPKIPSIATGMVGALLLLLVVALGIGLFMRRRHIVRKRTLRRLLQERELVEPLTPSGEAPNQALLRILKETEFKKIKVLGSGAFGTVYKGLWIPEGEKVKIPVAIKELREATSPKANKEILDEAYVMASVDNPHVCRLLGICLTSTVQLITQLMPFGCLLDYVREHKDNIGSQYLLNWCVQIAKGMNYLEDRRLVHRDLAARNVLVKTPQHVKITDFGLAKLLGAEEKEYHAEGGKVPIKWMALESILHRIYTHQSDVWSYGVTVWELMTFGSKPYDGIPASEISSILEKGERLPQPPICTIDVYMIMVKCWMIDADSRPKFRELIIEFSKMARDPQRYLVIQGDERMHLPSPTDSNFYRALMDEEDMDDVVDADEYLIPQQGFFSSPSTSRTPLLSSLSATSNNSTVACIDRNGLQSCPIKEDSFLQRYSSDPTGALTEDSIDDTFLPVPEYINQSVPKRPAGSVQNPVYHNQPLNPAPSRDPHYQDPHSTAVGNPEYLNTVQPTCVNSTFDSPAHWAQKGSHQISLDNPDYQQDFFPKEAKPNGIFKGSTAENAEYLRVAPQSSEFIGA

C=CC(=O)Nc1cccc(Nc2nc(Nc3ccc(OCCOC)cc3)ncc2F)c1 [CC-292]
effect on human platelet-mediated thrombus formation [1]: interfere with thrombus formation; also recorded: effect similar to ibrutinib

obinutuzumab: humanized monoclonal antibody directed against CD20
MRD-negative complete response, number (CLL; [7]): 1
response rate (CLL; [7]): 62%
patients with Grade 3 IRRs (CLL; [8]): 15%
patients with Grade 4 IRRs (CLL; [8]): no Grade 4
patients with IRRs, all grade (CLL; [8]): 100%
patients developing IRR (CLL; Phase 2 portion, relapsed/refractory CLL): 95%
Grade 3 reactions among those (CLL; Phase 2 portion): 25%
cases developing symptoms of hypotension (CLL; Phase 2 portion): 60%

C=CC(=O)N1CCC[C@@H](n2nc(-c3ccc(Oc4ccccc4)cc3)c3c(N)ncnc32)C1 [ibrutinib]
percentage of CD56+/CD107a+ NK cells / antagonism [2]: strong reduction
EC50 (B cell receptor): 6.1 nM
GPVI platelet aggregation [3]: significantly inhibits GPVI platelet aggregation
IC50 ([3]; Homo sapiens, Platelet): 130 nM
effect on Th17 cells (Th17 cells): strongly inhibits Thl7 cells; also recorded: profound inhibition
ITK binding [4]: irreversibly binds ITK
effect on CD8+ T cell viability (CD8+ T cell): strongly affects CD8 T cell viability at higher doses; also recorded: strong, negative effect
effect on Treg development (regulatory T cell (Treg)): strongly increases Treg development; also recorded: increase in Treg development
EGFR inhibition [5]: inhibits epidermal growth factor receptor (EGFR)
CYP substrate [6]: substrate for both cytochrome P450 (CYP) enzymes 3A4/5 and 2D6
effect on rituximab ADCC mediated by NK cells (NK cells): antagonizes rituximab antibody-dependent cell mediated cytotoxicity (ADCC); also recorded: undesirably antagonizes rituximab ADCC effects
